Laboratory results: patent US20140128385A1 (NOVARTIS AG, priority 2011, published 2014)
pIC50: −log10 of the molar value. Counter-ions that a name gives are not always drawn.

Target: T1, BACE-2 (Homo sapiens, UniProt Q9Y5Z0)
T1 construct: Recombinant BACE-2 (extracellular domain, expressed in baculovirus and purified using standard methods); made in house
T1 sequence (Q9Y5Z0 63-473 limits assumed): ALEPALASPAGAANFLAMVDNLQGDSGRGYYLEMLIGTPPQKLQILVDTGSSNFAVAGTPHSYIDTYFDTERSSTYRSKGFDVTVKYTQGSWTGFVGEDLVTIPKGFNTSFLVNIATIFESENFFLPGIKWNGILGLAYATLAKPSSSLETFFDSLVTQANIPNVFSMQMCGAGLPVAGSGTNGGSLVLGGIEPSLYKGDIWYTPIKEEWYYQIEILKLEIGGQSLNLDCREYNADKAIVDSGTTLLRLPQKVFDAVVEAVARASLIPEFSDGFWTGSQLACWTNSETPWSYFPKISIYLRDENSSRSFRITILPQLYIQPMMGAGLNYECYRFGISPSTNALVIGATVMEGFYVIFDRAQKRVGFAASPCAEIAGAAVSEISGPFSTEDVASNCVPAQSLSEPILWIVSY
Experiment: assay for inhibition of BACE-2
Type: biochemical

SMILES | pIC50
C[C@@]1(c2cc(NC(=O)c3ncc(C(F)(F)F)cc3Cl)ccc2F)CO[C@@](C)(C(F)(F)F)C(N)=N1 [Example 248, 3-Chloro-5-trifluoromethyl-pyridine-2-carboxylic acid [3-((3R,6R)-5-amino-3,6-dimethyl-6-trifluoromethyl-3,6-dihydro-2H-[1,4]oxazin-3-yl)-4-fluoro-phenyl]-amide] | 7.66
Cc1cc(F)cnc1C(=O)Nc1ccc(F)c([C@]2(C)CO[C@@](C)(C(F)(F)F)C(N)=N2)c1 [Example 249, 5-Fluoro-3-methyl-pyridine-2-carboxylic acid [3-((3R,6R)-5-amino-3,6-dimethyl-6-trifluoro-methyl-3,6-dihydro-2H-[1,4]oxazin-3-yl)-4-fluoro-phenyl]-amide] | 8.52
[2H]c1nc(C(=O)Nc2cccc(C3(CF)COCC(N)=N3)n2)c(C([2H])([2H])[2H])c([2H])c1Cl (stereo not shown) [Example 262, 5-{6-[(4,6-Dideutero-5-chloro-3-trideuteromethyl-pyridine-2-carbonyl)-amino]-pyridin-2-yl}-5-fluoromethyl-5,6-dihydro-2H-[1,4]oxazin-3-yl-ammonium trifluoro acetate] | 6.62
NC(=S)c1ccc(C(=O)Nc2cccc(C3(CF)COCC(N)=N3)n2)nc1 (stereo not shown) [Example 263] | 5.06
[2H]c1nc(C(=O)Nc2cc(C3(CF)COCC(N)=N3)ccn2)c(C([2H])([2H])[2H])c([2H])c1Cl (stereo not shown) [Example 269, 5-{2-[(5-Chloro-4,6-dideutero-3-trideuteromethyl-pyridine-2-carbonyl)-amino]-pyridin-4-yl}-5-fluoromethyl-5,6-dihydro-2H-[1,4]oxazin-3-yl-ammonium acetate] | 5.82
NC1=NC(CF)(c2ccnc(NC(=O)c3ccc(Cl)cn3)c2)COC1 (stereo not shown) [Example 270] | 5.32

Other lines, results leading:

pIC50 | SMILES
6.37 | Cc1cc(OC(F)F)cnc1C(=O)Nc1ccc(F)c(C2(C)COC(CF)(CF)C(N)=N2)c1 (stereo not shown) [Example 253, 5-Difluoromethoxy-3-methyl-pyridine-2-carboxylic acid [3-(5-amino-6,6-bis-fluoromethyl-3-methyl-3,6-dihydro-2H-[1,4]oxazin-3-yl)-4-fluoro-phenyl]-amide]
7.23 | Cc1cc(OC(F)F)cnc1C(=O)Nc1ccc(F)c([C@]2(C)COC(CF)(CF)C(N)=N2)c1 [Example 254, 5-Difluoromethoxy-3-methyl-pyridine-2-carboxylic acid [3-((R)-5-amino-6,6-bis-fluoromethyl-3-methyl-3,6-dihydro-2H-[1,4]oxazin-3-yl)-4-fluoro-phenyl]-amide]
8.05 | Cc1cc(Cl)cnc1C(=O)Nc1ccc(F)c(C2(C)COC(CF)(CF)C(N)=N2)c1 (stereo not shown) [Example 255, 5-Chloro-3-methyl-pyridine-2-carboxylic acid [3-(5-amino-6,6-bis-fluoromethyl-3-methyl-3,6-dihydro-2H-[1,4]oxazin-3-yl)-4-fluoro-phenyl]-amide]
7.74 | Cc1cc(C#N)cnc1C(=O)Nc1ccc(F)c([C@]2(CF)COC(CF)(CF)C(N)=N2)c1 [Example 256, 5-Cyano-3-methyl-pyridine-2-carboxylic acid [3-((R)-5-amino-3,6,6-tris-fluoromethyl-3,6-dihydro-2H-[1,4]oxazin-3-yl)-4-fluoro-phenyl]-amide]
6.59 | C[C@@]1(c2cccc(NC(=O)c3ccc(Br)cn3)n2)COCC(N)=N1 [Example 257, 5-Bromo-pyridine-2-carboxylic acid [6-((R)-5-amino-3-methyl-3,6-dihydro-2H-[1,4]-oxazin-3-yl)-pyridin-2-yl]-amide]
5.86 | NC1=NC(CF)(c2cccc(NC(=O)c3ccc(Cl)cn3)n2)COC1 (stereo not shown) [Example 259, 5-{6-[(5-Chloro-pyridine-2-carbonyl)-amino]-pyridin-2-yl}-5-fluoromethyl-5,6-dihydro-2H-[1,4]oxazin-3-yl-ammonium trifluoro acetate]
5.78 | NC1=NC(CF)(c2cccc(NC(=O)c3ccc(Br)cn3)n2)COC1 (stereo not shown) [Example 260]
5.99 | Cc1cc(C#N)cnc1C(=O)Nc1cccc(C2(CF)COCC(N)=N2)n1 (stereo not shown) [Example 261, 5-{6-[(5-Cyano-3-methyl-pyridine-2-carbonyl)-amino]-pyridin-2-yl}-5-fluoromethyl-5,6-dihydro-2H-[1,4]oxazin-3-yl-ammonium trifluoro acetate]
< 5.00 | Cc1cc(C(N)=S)cnc1C(=O)Nc1cc(C2(CF)COCC(N)=N2)ccn1 (stereo not shown) [Example 271, 5-Fluoromethyl-5-{2-[(3-methyl-5-thiocarbamoyl-pyridine-2-carbonyl)-amino]-pyridin-4-yl}-5,6-dihydro-2H-[1,4]oxazin-3-yl-ammonium trifluoro-acetate]
6.88 | NC1=NC(CF)(c2cc(NC(=O)c3ccc(Br)cn3)cnc2Cl)COC1 (stereo not shown) [Example 274, 5-Bromo-pyridine-2-carboxylic acid [5-(5-amino-3-fluoromethyl-3,6-dihydro-2H-[1,4]oxazin-3-yl)-6-chloro-pyridin-3-yl]-amide hydrochloride]
